Measured values reported in publication PMC12797170, “Potent Competitive Inhibitors of Ecto-5′-nucleotidase (CD73) based on 6‑(Het)aryl-7-deazapurine Ribonucleoside 5′‑O‑Bisphosphonates” (ACS Pharmacology & Translational Science, 2025).
≈ marks a conversion by molar mass, not a printed value.

Tests used:
[1] = biological target: T1, recombinant human CD73 (hCD73) (Homo sapiens, UniProt P21589); assay: CD73 activity assay on recombinant human CD73; type: biochemical; conditions: ΔGexp = RT ln Ki
T1 sequence (P21589 27-574): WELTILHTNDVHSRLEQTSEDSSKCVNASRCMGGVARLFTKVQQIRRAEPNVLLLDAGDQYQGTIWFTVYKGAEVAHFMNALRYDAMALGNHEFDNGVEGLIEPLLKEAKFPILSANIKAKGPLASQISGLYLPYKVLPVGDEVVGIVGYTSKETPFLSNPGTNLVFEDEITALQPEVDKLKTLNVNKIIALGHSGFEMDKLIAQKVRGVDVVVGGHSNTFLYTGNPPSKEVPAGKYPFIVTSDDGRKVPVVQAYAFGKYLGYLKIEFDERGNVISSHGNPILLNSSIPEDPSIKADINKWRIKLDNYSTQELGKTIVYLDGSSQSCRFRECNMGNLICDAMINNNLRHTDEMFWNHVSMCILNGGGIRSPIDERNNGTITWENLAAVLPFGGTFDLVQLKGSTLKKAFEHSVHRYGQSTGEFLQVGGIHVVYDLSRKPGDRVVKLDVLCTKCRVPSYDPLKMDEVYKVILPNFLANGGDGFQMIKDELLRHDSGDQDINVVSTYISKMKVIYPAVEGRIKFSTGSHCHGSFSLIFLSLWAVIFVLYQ

[2] = In vivo pharmacokinetic study, intravenous; parameters: species or system male CD-1 mice; conditions: plasma, 1 mg/kg, intravenous; for half-life: male, CD-1, mouse, iv, footnote: t1/2 stability in plasma, text: half-life in mouse PK; for clearance: mouse, male CD-1 mice, single dose, read-out: Cl (obs), observed clearance
Method in brief: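 Single intravenous dose in male CD-1 mice (n=3, 9 weeks, 29.2–33.7 g). Plasma levels measured by LC-MS/MS at 5, 15, 30, 60, 120, 240 and 480 min.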

[3] = Plasma protein binding, equilibrium dialysis, human plasma; type: in vitro ADME; conditions: undiluted plasma
[4] = Plasma protein binding, mouse plasma; type: in vitro ADME; conditions: mouse, plasma
[5] = Kinetic solubility in PBS; type: physicochemical; conditions: phosphate-buffered saline, pH 7.4, aqueous buffer, kinetic from dmso stock
Method in brief: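 Echo-MS quantitation with calibration from 0.05 to 4 μM, after 1:99 dilution of filtrate into 50% acetonitrile. Filtrate came from a 100 μM PBS (pH 7.4) solution equilibrated 2 h at room temperature with shaking, in duplicate.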

[6] = Microsomal stability assay, human liver microsomes; type: in vitro ADME; conditions: for microsomal CLint at 10 µM: pooled liver microsomes, pH 7.4, read-out: Mics (hu) CLint; for Mics (hu) comp remaining 60 min: 10 μM
[7] = Microsomal stability assay, mouse liver microsomes; type: in vitro ADME; conditions: for Mics (m) comp remaining 60 min: 10 μM; for microsomal CLint at 10 µM: pooled liver microsomes, pH 7.4, read-out: Mics (m) CLint
[8] = test system: CCRF-CEM; assay: In vitro cytotoxic activity; type: cell-based; conditions: Homo sapiens
Procedure: (§1) All the compounds were also tested for their in vitro cytotoxic activity on a small panel of four cancer cell lines (CCRF-CEM, HepG2, HeLa S3, HL-60) and nonmalignant human dermal fibroblasts (NHDF).

[9] = test system: HL-60; assay: In vitro cytotoxic activity; type: cell-based; conditions: Homo sapiens
Procedure: as §1

[10] = test system: HeLa S3; assay: In vitro cytotoxic activity; type: cell-based; conditions: Homo sapiens
Procedure: as §1

[11] = test system: HepG2; assay: In vitro cytotoxic activity; type: cell-based; conditions: Homo sapiens
Procedure: as §1

[12] = test system: nonmalignant human dermal fibroblasts (NHDF); assay: In vitro cytotoxic activity; type: cell-based
Procedure: as §1

[13] = in vitro; conditions: human, plasma
[14] = in vitro; conditions: mouse, plasma
[15] = human plasma protein binding, read-out: PPB (hu) (converted)
[16] = mouse plasma protein binding, read-out: PPB (m) (converted)
[17] = Tables 2 and 4, mouse plasma, read-out: fup, fraction unbound in mouse plasma

Compound	dG_exp, experimental binding free energy [1]	half-life [2] [h]	clearance [2] [mL/min/kg]	fraction unbound at 4 h, 100 µM ([3]; Tables 1 and 3, human plasma as printed in footnote, read-out: fup, fraction unbound in human plasma)	fraction unbound at 4 h, 100 µM [3, 15]	fraction unbound at 4 h, 100 µM [4, 16]	solubility at 2 h [5] [µM]	microsomal CLint at 10 µM [6] [µL/min/mg]	Mics (m) comp remaining 60 min [7] [%]	microsomal CLint at 10 µM [7] [µL/min/mg]	IC50 [8] [µM]	IC50 [9] [µM]	IC50 [10] [µM]	IC50 [11] [µM]	IC50 [12] [µM]	half-life at 10 µM [13] [h]	half-life at 10 µM [14] [h]	fraction unbound at 4 h, 100 µM [4, 17]	Mics (hu) comp remaining 60 min [6] [%]
O=P(O)(O)CP(=O)(O)OC[C@H]1O[C@@H](n2ccc3c(-c4ccnc5ccccc45)ncnc32)[C@H](O)[C@@H]1O [4A.17]	–14.3 kcal/mol	2.15	7.2	0.8	0.257	0.8	> 100	< 1	79	9	> 10	> 10	> 10	> 10	> 10	> 2	> 2	–	–
O=P(O)(O)CP(=O)(O)OC[C@H]1O[C@@H](n2ccc3c(-c4ccc5cc(Cl)ccc5c4)nc(Cl)nc32)[C@H](O)[C@@H]1O [7B.27]	–15.3 kcal/mol	2.43	6.7	–	≤ 0.01	0.036	89 (≈ 53.8 µg/mL)	< 2	140	< 2	> 10	> 10	> 10	> 10	> 10	> 2	> 2	0.04	148
O=P(O)(O)CP(=O)(O)OC[C@H]1O[C@@H](n2ccc3c(-c4cc5ccccc5[nH]4)nc(Cl)nc32)[C@H](O)[C@@H]1O [7B.24]	–15.7 kcal/mol	0.617	12	–	0.012	0.201	> 100	< 1	72	12	> 10	> 10	> 10	> 10	> 10	> 2	> 2	0.21	111
Nc1nc(-c2cccc3ccccc23)c2ccn([C@@H]3O[C@H](COP(=O)(O)CP(=O)(O)O)[C@@H](O)[C@H]3O)c2n1 [11C.6]	–13.9 kcal/mol	2.78	2.3	–	0.067	0.564	> 100	3	102	< 1	> 10	> 10	> 10	> 10	> 10	> 2	> 2	0.56	92
O=P(O)(O)CP(=O)(O)OC[C@H]1O[C@@H](n2ccc3c(-c4cc(Br)c5ccccc5c4F)nc(Cl)nc32)[C@H](O)[C@@H]1O [7B.26]	–15.7 kcal/mol	1.67	1.1	–	≤ 0.01	0.016	71 (≈ 47.3 µg/mL)	< 2	113	< 2	> 10	> 10	> 10	> 10	> 10	> 2	> 2	0.02	117
O=P(O)(O)CP(=O)(O)OC[C@H]1O[C@@H](n2ccc3c(-c4cccc5c4CCCC5)nc(F)nc32)[C@H](O)[C@@H]1O [14D.12]	–15.1 kcal/mol	2.25	1.4	–	0.023	0.235	84 (≈ 46.8 µg/mL)	< 1	116	< 1	> 10	> 10	> 10	> 10	> 10	> 2	> 2	0.23	99
O=P(O)(O)CP(=O)(O)OC[C@H]1O[C@@H](n2ccc3c(-c4ccco4)nc(Cl)nc32)[C@H](O)[C@@H]1O [7B.1, [(5-{[2-Chloro-4-(furan-2-yl)-7H-pyrrolo[2,3-d]pyrimidin-7-yl]-β-D-ribofuranosyl}oxy)phosphonomethyl]phosphonic Acid]	–15.2 kcal/mol	0.105	8.3	–	0.098	0.818	> 100	2	106	< 1	8.8	5.6	> 10	> 10	> 10	> 2	> 2	0.92	98
